According to patent US4921871A, “Enolamides, pharmaceutical compositions and methods of use thereof for treating inflammation” (Warner-Lambert Company, priority 1987, dated 1990):

Target: T1, leukotriene receptor (Cavia porcellus, UniProt Q2NNR5)
T1 construct: Two pairs of lungs (1.3 g) from freshly sacrificed 300 g male guinea pigs; tissue Kuiper Rabbit Farm, Gary, Ind; (animals); host or cells: guinea pig lung, crude membranes
T1 sequence (Q2NNR5 1-340): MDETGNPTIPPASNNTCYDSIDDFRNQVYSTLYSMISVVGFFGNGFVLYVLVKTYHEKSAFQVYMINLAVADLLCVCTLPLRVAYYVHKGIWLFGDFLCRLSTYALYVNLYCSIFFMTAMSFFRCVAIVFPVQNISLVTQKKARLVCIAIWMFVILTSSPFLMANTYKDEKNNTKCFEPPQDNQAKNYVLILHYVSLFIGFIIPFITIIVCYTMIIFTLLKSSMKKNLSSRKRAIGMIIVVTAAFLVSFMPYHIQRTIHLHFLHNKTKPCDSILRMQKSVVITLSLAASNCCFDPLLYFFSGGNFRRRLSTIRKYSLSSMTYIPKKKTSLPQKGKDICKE
Assay: Binding of 3H-Leukotriene D4 to Guinea Pig Lung Membranes (RBL)
Details: 1.00 E -4 M
Experimental: Additionally, the activity, of the compounds having the Formula I of the present invention is determined by the well known leukotriene receptor binding assay that is described by R. F. Bruns, W. J. Thomsen and T. A. Pugsley in Life Sciences, 33, 645 (1983) or the Herxheimer in vivo antiallergy test described in H. Herxheimer, J. Physiol. (London), Vol. 177, p. 251 (1952).
[14,15-^3 H]leukotriene D4 (^3 H-LTD4) (25 Ci/mmol and 40 Ci/mmol) is purchased from New England Nuclear. Unlabeled LTC4 is a gift of Ono Pharmaceuticals (Japan). LTC4, LTD4, and LTE4 are purchased as methyl esters from Paesel GmbH (Frankfurt, W. Germany). Concentrations of the Paesel leukotrienes are calculated from their absorbance at 280 nm. Leukotriene esters are saponified overnight under N2 in 3.3% potassium carbonate at room temperature. Tritiated leukotrienes are stored as received from New England Nuclear at -20° C. Ono LTC4 (5 μg/ml) is stored at -60° C. in phosphate buffer pH - 6.8. Saponified Paesel leukotrienes are stored at -60° C. in 3.3% potassium carbonate (pH 9.0-9.5). Aliquots of leukotrienes are taken from stock solutions immediately after thawing, after which the stock solutions are immediately refrozen. 2-Amino-2-(hydroxymethyl)-1,3-propanediol (Tris) is Sigma pH 7.7 pre-set crystals, and dimethylsulfoxide is Aldrich Gold Label. Preparation of crude lung membranes
Two pairs of lungs (1.3 g) from freshly sacrificed 300 g male guinea pigs (older animals gave substantially lower binding) from Kuiper Rabbit Farm, Gary, Ind. are disrupted with a Polytron PT 10 (setting 4) for 30 seconds in 20 ml ice-cold 50 mM Tris adjusted with HCl to pH 7.7 at 25° C. (Tris buffer), filtered through a single layer of gauze to remove connective tissue, and centrifuged at 50,000 xg for ten min. The pellet is resuspended by homogenization with a Polytron in 20 ml Tris buffer, centrifuged at 50,000 xg for ten min., resuspended, incubated at 37° C. for 30 minutes, and centrifuged again. The final pellet is resuspended in Tris buffer and either used fresh or stored at -70° C.
All incubations are in triplicate for 60 minutes at 25° C. in 12×75 mm polystyrene tubes containing 1 ml Tris buffer with 20 mg original tissue wet weight of guinea pig lung membranes, 0.2 nM ^3 H-LTD4 (6,000-11,000 cpm), 10 mM MgCl2, and 1% dimethylsulfoxide. Leukotrienes are diluted in Tris buffer. All other test compounds dissolved at 10 mM in dimethylsulfoxide on the same day as the experiment, and diluted in dimethylsulfoxide to 100× the final incubation concentration. Control incubations receive an equal volume (10 μl) of dimethylsulfoxide; the resulting concentration of dimethylsulfoxide had no effect on binding. ^3 H-LTD4 is diluted to 2 nM in Tris buffer. The membrane suspension (20 mg/0.89 ml) contains sufficient MgCl2 to give 10 mM final concentration in the incubation. […] All additions are performed at 0° C. Immediately after the last addition, the incubation is initiated by agitating the rack of tubes on a vortex mixer and warming to 25° C. in a water bath. Tubes are vortexed at least once more during the incubation to ensure that the membranes remained suspended. Incubations are terminated after 60 minutes by filtering under reduced pressure through 25 mm Whatman GF/B filters followed by rapid washing three times with 4 ml of ice-cold Tris buffer. Filters are added to scintillation vials with 8 ml Formula 947 (New England Nuclear), left overnight, shaken, and the radioactivity counted in a scintillation counter (efficiency 40%). Nonspecific binding, defined as binding of ^3 H-LTD4 in the presence of 100 nM LTC4, is 300-500 cpm for all lots of ^3 H-LTD4. Binding to the filters in the absence of tissue is about 100 cpm, and is not affected by unlabeled LTC4. Specific binding, defined as total binding minus nonspecific binding, varied considerably from lot to lot of ^3 H-LTD4. […]

Row | RBL, % Inhibition [%] | Structure (SMILES)
1 | 11.0 | O=C(Nc1ccc(CCc2ccc(Cl)c(Cl)c2)cc1)C(=O)c1sc2ccccc2c1O [Example 136, Benzo[b]thiophene-2-acetamide, N-[4-[2-(3,4-dichlorophenyl)ethyl]phenyl]-3-hydroxy-α-oxo]
2 | 3.0 | COc1c(C(=O)Nc2ccc(CCc3ccc(Cl)c(Cl)c3)cc2)sc2ccccc12 [Example 147, Benzo[b]thiophene-2-carboxamide, N-[4-[2-(3,4-dichlorophenyl)ethyl]phenyl]-3-methoxy]
